Results taken from ChEMBL document CHEMBL3885881, “DrugMatrix”.

Organism: Rattus norvegicus
Assay: DrugMatrix - Regimen: Daily Repeat
Type: toxicity, organism-based, Sprague-Dawley
Set-up: regimen Daily Repeat, gender Male, age 6-8 weeks
Conditions: in vivo, iv, vehicle 100 % SALINE; for ABSOLUTE BASOPHIL / ABSOLUTE EOSINOPHIL / ABSOLUTE LYMPHOCYTE / ABSOLUTE MONOCYTE / ABSOLUTE SEGMENTED NEUTROPHIL / BASOPHIL / EOSINOPHIL / ERYTHROCYTE COUNT / HEMATOCRIT / HEMOGLOBIN / LEUKOCYTE COUNT / LYMPHOCYTE / MEAN CORPUSCULAR HEMOGLOBIN / MEAN CORPUSCULAR HEMOGLOBIN CONCENTRATION / MEAN CORPUSCULAR VOLUME / MONOCYTE / NEUTROPHIL / NUCLEATED RED BLOOD CELLS / PLATELET COUNT: tissue Blood; for ALANINE AMINOTRANSFERASE / ALBUMIN / ALKALINE PHOSPHATASE / ASPARTATE AMINOTRANSFERASE / BLOOD UREA NITROGEN / CARBON DIOXIDE / CHLORIDE / CHOLESTEROL / CREATINE PHOSPHOKINASE / CREATININE / GLUCOSE / LACTATE DEHYDROGENASE / LIPASE / PHOSPHORUS / POTASSIUM / SODIUM / TOTAL BILIRUBIN / TOTAL PROTEIN / URIC ACID: tissue Plasma
[1] = 200 mg/kg, 72 h, dose level Low, time 3 day
[2] = 200 mg/kg, 120 h, dose level Low, time 5 day
[3] = 671 mg/kg, 72 h, dose level High, time 3 day
[4] = 671 mg/kg, 120 h, dose level High, time 5 day

CC1(C)[C@H](C(=O)O)N2C(=O)C[C@H]2S1(=O)=O [SULBACTAM]
ABSOLUTE BASOPHIL [1]: 0 CELLS/uL
ABSOLUTE EOSINOPHIL [1]: 43 CELLS/uL
ABSOLUTE LYMPHOCYTE [1]: 14561.67 CELLS/uL
ABSOLUTE MONOCYTE [1]: 271 CELLS/uL
ABSOLUTE SEGMENTED NEUTROPHIL [1]: 824.33 CELLS/uL
BASOPHIL [1]: 0%
EOSINOPHIL [1]: 0.33%
ERYTHROCYTE COUNT [1]: 5.6 x10E6/uL
HEMATOCRIT [1]: 36.53%
HEMOGLOBIN [1]: 13.5 G/DL
LEUKOCYTE COUNT [1]: 15.7 x10E3/uL
LYMPHOCYTE [1]: 93%
MEAN CORPUSCULAR HEMOGLOBIN [1]: 24.1 pg
MEAN CORPUSCULAR HEMOGLOBIN CONCENTRATION [1]: 36.97 G/DL
MEAN CORPUSCULAR VOLUME [1]: 65.23 fL
MONOCYTE [1]: 1.67%
NEUTROPHIL [1]: 5%
NUCLEATED RED BLOOD CELLS [1]: 0 /100WBC
PLATELET COUNT [1]: 1408.33 x10E3/uL
ALANINE AMINOTRANSFERASE [1]: 53.67 u/L
ALBUMIN [1]: 4.27 G/DL
ALKALINE PHOSPHATASE [1]: 448.33 u/L
ASPARTATE AMINOTRANSFERASE [1]: 100 u/L
BLOOD UREA NITROGEN [1]: 15.67 mg/dL
CARBON DIOXIDE [1]: 25 mmol/L
CHLORIDE [1]: 104.33 MEQ/L
CHOLESTEROL [1]: 75.67 mg/dL
CREATINE PHOSPHOKINASE [1]: 386 u/L
CREATININE [1]: 0.21 mg/dL
GLUCOSE [1]: 148.33 mg/dL
LACTATE DEHYDROGENASE [1]: 566.33 u/L
LIPASE [1]: 9 u/L
PHOSPHORUS [1]: 14.37 mg/dL
POTASSIUM [1]: 6.91 MEQ/L
SODIUM [1]: 147.5 MEQ/L
TOTAL BILIRUBIN [1]: 0.2 mg/dL
TOTAL PROTEIN [1]: 5.87 G/DL
URIC ACID [1]: 2.33 mg/dL
ABSOLUTE BASOPHIL [2]: 0 CELLS/uL
ABSOLUTE EOSINOPHIL [2]: 0 CELLS/uL
ABSOLUTE LYMPHOCYTE [2]: 14657 CELLS/uL
ABSOLUTE MONOCYTE [2]: 318 CELLS/uL
ABSOLUTE SEGMENTED NEUTROPHIL [2]: 925 CELLS/uL
BASOPHIL [2]: 0%
EOSINOPHIL [2]: 0%
ERYTHROCYTE COUNT [2]: 5.84 x10E6/uL
HEMATOCRIT [2]: 37.7%
HEMOGLOBIN [2]: 14.03 G/DL
LEUKOCYTE COUNT [2]: 15.9 x10E3/uL
LYMPHOCYTE [2]: 92%
MEAN CORPUSCULAR HEMOGLOBIN [2]: 24.03 pg
MEAN CORPUSCULAR HEMOGLOBIN CONCENTRATION [2]: 37.23 G/DL
MEAN CORPUSCULAR VOLUME [2]: 64.47 fL
MONOCYTE [2]: 2%
NEUTROPHIL [2]: 6%
NUCLEATED RED BLOOD CELLS [2]: 0 /100WBC
PLATELET COUNT [2]: 1395.33 x10E3/uL
ALANINE AMINOTRANSFERASE [2]: 49.67 u/L
ALBUMIN [2]: 4.37 G/DL
ALKALINE PHOSPHATASE [2]: 374.33 u/L
ASPARTATE AMINOTRANSFERASE [2]: 126 u/L
BLOOD UREA NITROGEN [2]: 17 mg/dL
CARBON DIOXIDE [2]: 23 mmol/L
CHLORIDE [2]: 109 MEQ/L
CHOLESTEROL [2]: 81.67 mg/dL
CREATINE PHOSPHOKINASE [2]: 1350 u/L
CREATININE [2]: 0.18 mg/dL
GLUCOSE [2]: 184.33 mg/dL
LACTATE DEHYDROGENASE [2]: 397.67 u/L
LIPASE [2]: 9.67 u/L
PHOSPHORUS [2]: 15.07 mg/dL
POTASSIUM [2]: 6.82 MEQ/L
SODIUM [2]: 147.1 MEQ/L
TOTAL BILIRUBIN [2]: 0.17 mg/dL
TOTAL PROTEIN [2]: 6.2 G/DL
URIC ACID [2]: 2.3 mg/dL
ABSOLUTE BASOPHIL [3]: 0 CELLS/uL
ABSOLUTE EOSINOPHIL [3]: 155 CELLS/uL
ABSOLUTE LYMPHOCYTE [3]: 10321.67 CELLS/uL
ABSOLUTE MONOCYTE [3]: 230 CELLS/uL
ABSOLUTE SEGMENTED NEUTROPHIL [3]: 793.33 CELLS/uL
BASOPHIL [3]: 0%
EOSINOPHIL [3]: 1%
ERYTHROCYTE COUNT [3]: 5.18 x10E6/uL
HEMATOCRIT [3]: 33.43%
HEMOGLOBIN [3]: 12.83 G/DL
LEUKOCYTE COUNT [3]: 11.5 x10E3/uL
LYMPHOCYTE [3]: 90.33%
MEAN CORPUSCULAR HEMOGLOBIN [3]: 24.77 pg
MEAN CORPUSCULAR HEMOGLOBIN CONCENTRATION [3]: 38.4 G/DL
MEAN CORPUSCULAR VOLUME [3]: 64.63 fL
MONOCYTE [3]: 2%
NEUTROPHIL [3]: 6.67%
NUCLEATED RED BLOOD CELLS [3]: 0 /100WBC
PLATELET COUNT [3]: 1400 x10E3/uL
ALANINE AMINOTRANSFERASE [3]: 58 u/L
ALBUMIN [3]: 4.2 G/DL
ALKALINE PHOSPHATASE [3]: 390 u/L
ASPARTATE AMINOTRANSFERASE [3]: 79.67 u/L
BLOOD UREA NITROGEN [3]: 16.67 mg/dL
CARBON DIOXIDE [3]: 23.67 mmol/L
CHLORIDE [3]: 105 MEQ/L
CHOLESTEROL [3]: 91.67 mg/dL
CREATINE PHOSPHOKINASE [3]: 323 u/L
CREATININE [3]: 0.17 mg/dL
GLUCOSE [3]: 164.67 mg/dL
LACTATE DEHYDROGENASE [3]: 190.67 u/L
LIPASE [3]: 9.67 u/L
PHOSPHORUS [3]: 13.3 mg/dL
POTASSIUM [3]: 6.52 MEQ/L
SODIUM [3]: 144.27 MEQ/L
TOTAL BILIRUBIN [3]: 0.2 mg/dL
TOTAL PROTEIN [3]: 5.83 G/DL
URIC ACID [3]: 1.6 mg/dL
ABSOLUTE BASOPHIL [4]: 0 CELLS/uL
ABSOLUTE EOSINOPHIL [4]: 174 CELLS/uL
ABSOLUTE LYMPHOCYTE [4]: 13614.33 CELLS/uL
ABSOLUTE MONOCYTE [4]: 314 CELLS/uL
ABSOLUTE SEGMENTED NEUTROPHIL [4]: 1597.67 CELLS/uL
BASOPHIL [4]: 0%
EOSINOPHIL [4]: 1%
ERYTHROCYTE COUNT [4]: 5.71 x10E6/uL
HEMATOCRIT [4]: 36.2%
HEMOGLOBIN [4]: 13.7 G/DL
LEUKOCYTE COUNT [4]: 15.7 x10E3/uL
LYMPHOCYTE [4]: 86.67%
MEAN CORPUSCULAR HEMOGLOBIN [4]: 24 pg
MEAN CORPUSCULAR HEMOGLOBIN CONCENTRATION [4]: 37.87 G/DL
MEAN CORPUSCULAR VOLUME [4]: 63.33 fL
MONOCYTE [4]: 2%
NEUTROPHIL [4]: 10.33%
NUCLEATED RED BLOOD CELLS [4]: 0 /100WBC
PLATELET COUNT [4]: 1356 x10E3/uL
ALANINE AMINOTRANSFERASE [4]: 44.33 u/L
ALBUMIN [4]: 4.33 G/DL
ALKALINE PHOSPHATASE [4]: 277 u/L
ASPARTATE AMINOTRANSFERASE [4]: 78 u/L
BLOOD UREA NITROGEN [4]: 18.33 mg/dL
CARBON DIOXIDE [4]: 26.67 mmol/L
CHLORIDE [4]: 108.33 MEQ/L
CHOLESTEROL [4]: 75.67 mg/dL
CREATINE PHOSPHOKINASE [4]: 555.67 u/L
CREATININE [4]: 0.17 mg/dL
GLUCOSE [4]: 164.67 mg/dL
LACTATE DEHYDROGENASE [4]: 144 u/L
LIPASE [4]: 9 u/L
PHOSPHORUS [4]: 13.8 mg/dL
POTASSIUM [4]: 6.54 MEQ/L
SODIUM [4]: 148.8 MEQ/L
TOTAL BILIRUBIN [4]: 0.17 mg/dL
TOTAL PROTEIN [4]: 6.43 G/DL
URIC ACID [4]: 1.67 mg/dL
